According to US4250170A, “Antibacterial agents Bu-2349A and B and method of using same” (Bristol-Myers Company, priority 1979, dated 1981):
In brackets after ≈: the same amount, converted by molar mass. Like-named read-outs stand apart in the source and are kept apart here.

How the values were obtained:
[1] = system: Staphylococcus aureus Smith (Sa-2); assay: MIC, two-fold agar dilution; assay type: cell-based; conditions: 18 h, Table 3, Mueller-Hinton agar, 10^-4 dilution
[2] = system: Staphylococcus aureus Terajima (Sa-33); assay: MIC, two-fold agar dilution; assay type: cell-based; conditions: 18 h, Table 3, Mueller-Hinton agar, 10^-4 dilution
[3] = system: Staphylococcus epidermidis (Si-2), ANT (4'); assay: MIC, two-fold agar dilution; assay type: cell-based; conditions: 18 h, Table 3, Mueller-Hinton agar, 10^-4 dilution, enzyme ANT (4')
[4] = system: Streptococcus pneumoniae (Dp-4); assay: MIC, two-fold agar dilution; assay type: cell-based; conditions: 18 h, Table 3, GC agar, 10^-2 dilution
Mycobacterium 607 (M6-1) = assay: MIC, two-fold agar dilution; assay type: cell-based; conditions: 18 h, Table 3, Mueller-Hinton agar, 10^-4 dilution
[5] = system: Escherichia coli (Ec-72), ANT(2"); assay: MIC, two-fold agar dilution; assay type: cell-based; conditions: 18 h, Table 3, Mueller-Hinton agar, 10^-4 dilution, enzyme ANT(2")
[6] = system: Klebsiella pneumoniae (Kp-33), AAC(3)-3; assay: MIC, two-fold agar dilution; assay type: cell-based; conditions: 18 h, Table 3, Mueller-Hinton agar, 10^-4 dilution, enzyme AAC(3)-3
Proteus vulgaris (Pv-1) = assay: MIC, two-fold agar dilution; assay type: cell-based; conditions: 18 h, Table 3, Mueller-Hinton agar, 10^-4 dilution
[7] = system: Proteus stuartii (Ps-2), AAC(2'); assay: MIC, two-fold agar dilution; assay type: cell-based; conditions: 18 h; Table 3; Mueller-Hinton agar, 10^-4 dilution; enzyme AAC(2')
[8] = system: Neisseria meningitidis (Nm-1); assay: MIC, two-fold agar dilution; assay type: cell-based; conditions: 18 h, Table 3, GC agar, 10^-2 dilution
[9] = system: Hemophylus influenzae (He-2); assay: MIC, two-fold agar dilution; assay type: cell-based; conditions: 18 h; Table 3; GC agar, 10^-2 dilution
P. vulgaris (Pv-3) = assay: MIC, agar dilution; assay type: cell-based; conditions: Proteus vulgaris, 18 h
Method: (§1) The minimum inhibitory concentrations (MIC) of Bu-2349A and B were determined against a wide variety of bacteria by the two-fold agar dilution method. Mueller-Hinton agar medium was generally used for the determination of bacterial MIC except for species of Streptococcus, Neisseria and Hemophilus for which Gonococcus agar medium (GC agar, Nissui Co., Tokyo) was used. Gifu anaerobe agar medium (GAM agar, Eiken Co., Tokyo) was used for anaerobic bacteria. The MIC's were determined after overnight incubation at 37° C. with an initial inoculum equivalent to a 10^-4 dilution of an 18-hour culture for the aerobic and anaerobic bacteria, except for Streptococcus, Neisseria and Hemophilus for which a 10^-2 dilution was used.
(§2) The influence of inoculum size on MIC was tested on Mueller-Hinton agar using an inoculum of […], 10^-2 or 10^-4 dilution of the overnight culture of test organisms.
(§3) The effect of media pH on the MIC's of Bu-2349A was determined at three pH levels (6, 7 and 8) using Mueller-Hinton agar.
(§4) The media effect on the MIC's of Bu-2349A was tested using four kinds of assay media: Mueller-Hinton agar (MHA), nutrient agar (NA), heart infusion agar (HIA) and brain heart infusion agar (BHIA). The pH was adjusted at 7 and a 10^-4 dilution of overnight culture was used for the inoculum.

S. aureus (Sa-63) = assay: MIC, agar dilution; assay type: cell-based; conditions: Staphylococcus aureus, 18 h
Method: as §1, §2, §3, §4

[10] = system: Bacteroides fragilis (Bf-1); assay: MIC against anaerobic bacteria; assay type: cell-based; conditions: 18 h, Table 4, GAM Medium, pH 7
[11] = system: Bacteroides fragilis (Bf-3); assay: MIC against anaerobic bacteria; assay type: cell-based; conditions: 18 h, Table 4, GAM Medium, pH 7
[12] = system: Fusobacterium varium ATCC 8501 (Fv-1); assay: MIC against anaerobic bacteria; assay type: cell-based; conditions: ATCC8501, 18 h, Table 4, GAM Medium, pH 7
[13] = system: Veillonella parvula ATCC 17745 (Vp-1); assay: MIC against anaerobic bacteria; assay type: cell-based; conditions: ATCC17745, 18 h, Table 4, GAM Medium, pH 7
[14] = system: Peptococcus aerogenes ATCC 14963 (Pe-101); assay: MIC against anaerobic bacteria; assay type: cell-based; conditions: Peptoniphilus asaccharolyticus, ATCC14963, 18 h; Table 4; GAM Medium, pH 7
[15] = mouse blood level, paper disc-agar plate assay; assay type: in vivo; conditions: mice, im, 50 mg./kg.
Method: Blood levels were determined in mice following intramuscular administration of Bu-2349A at a dose of 50 mg./kg. Blood samples were collected from orbital sinuses and assayed by the paper disc-agar plate method using B. subtilis PCI 219 as the test organism.

solubility = assay type: physicochemical; conditions: hydrochloride salt
[16] = system: gram-positive and gram-negative bacteria; assay: in vitro antibacterial activity, overall statements; assay type: cell-based
Method: as §1, §2, §3, §4

[17] = pH 6, Table 6, Mueller-Hinton Agar, 10^-4 dilution, pH 6, read-out: MIC
[18] = pH 7, Table 5, Mueller-Hinton Agar, pH 7, inoculum 10^-2 dil., read-out: MIC
[19] = pH 7, Table 5, Mueller-Hinton Agar, pH 7, inoculum 10^-4 dil., read-out: MIC
[20] = pH 7, Table 6, Mueller-Hinton Agar, 10^-4 dilution, pH 7, read-out: MIC
[21] = pH 7, Table 7, pH 7, 10^-4 dilution, BHIA, read-out: MIC
[22] = pH 7, Table 7, pH 7, 10^-4 dilution, HIA, read-out: MIC
[23] = pH 7, Table 7, pH 7, 10^-4 dilution, MHA, read-out: MIC
[24] = pH 7, Table 7, pH 7, 10^-4 dilution, NA, read-out: MIC
[25] = pH 8, Table 6, Mueller-Hinton Agar, 10^-4 dilution, pH 8, read-out: MIC

C=C1OC(OC2C(CO)OC(Oc3ccc(C(=O)NCCCNCCCCNCCCCN)cc3)C2O)C(O)C(OC2OC(CO)C(OC3OC(C)C(N)C(O)C3NC(=O)C(C)N)C(O)C2O)C1O (stereo not shown) [Bu-2349A]
MIC [1]: 3.1 µg/mL (≈ 3.13 µM) | MIC [2]: 1.6 µg/mL (≈ 1.62 µM) | MIC [3]: 3.1 µg/mL (≈ 3.13 µM) | MIC [4]: > 100 µg/mL | MIC (Mycobacterium 607 (M6-1)): 3.1 µg/mL (≈ 3.13 µM) | MIC [5]: 1.6 µg/mL (≈ 1.62 µM) | MIC [6]: 3.1 µg/mL (≈ 3.13 µM) | MIC (Proteus vulgaris (Pv-1)): 1.6 µg/mL (≈ 1.62 µM) | MIC [7]: 1.6 µg/mL (≈ 1.62 µM) | MIC [8]: > 100 µg/mL | MIC [9]: > 100 µg/mL | MIC (P. vulgaris (Pv-3); [17]): > 50 µg/mL | MIC (P. vulgaris (Pv-3); pH 7): 12.5 µg/mL (≈ 12.6 µM) | MIC (P. vulgaris (Pv-3); [18]): 6.3 µg/mL (≈ 6.36 µM) | MIC (P. vulgaris (Pv-3); [19]): 6.3 µg/mL (≈ 6.36 µM) | MIC (P. vulgaris (Pv-3); [20]): 6.3 µg/mL (≈ 6.36 µM) | MIC (P. vulgaris (Pv-3); [21]): 3.1 µg/mL (≈ 3.13 µM) | MIC (P. vulgaris (Pv-3); [22]): 1.6 µg/mL (≈ 1.62 µM) | MIC (P. vulgaris (Pv-3); [23]): 3.1 µg/mL (≈ 3.13 µM) | MIC (P. vulgaris (Pv-3); [24]): 1.6 µg/mL (≈ 1.62 µM) | MIC (P. vulgaris (Pv-3); [25]): 6.3 µg/mL (≈ 6.36 µM) | MIC (S. aureus (Sa-63); [17]): > 50 µg/mL | MIC (S. aureus (Sa-63); pH 7): 12.5 µg/mL (≈ 12.6 µM) | MIC (S. aureus (Sa-63); [18]): 6.3 µg/mL (≈ 6.36 µM) | MIC (S. aureus (Sa-63); [19]): 6.3 µg/mL (≈ 6.36 µM) | MIC (S. aureus (Sa-63); [20]): 6.3 µg/mL (≈ 6.36 µM) | MIC (S. aureus (Sa-63); [21]): 6.3 µg/mL (≈ 6.36 µM) | MIC (S. aureus (Sa-63); [22]): 3.1 µg/mL (≈ 3.13 µM) | MIC (S. aureus (Sa-63); [23]): 6.3 µg/mL (≈ 6.36 µM) | MIC (S. aureus (Sa-63); [24]): 6.3 µg/mL (≈ 6.36 µM) | MIC (S. aureus (Sa-63); [25]): 3.1 µg/mL (≈ 3.13 µM) | MIC [10]: > 100 µg/mL | MIC [11]: > 100 µg/mL | MIC [12]: > 100 µg/mL | MIC [13]: > 100 µg/mL | MIC [14]: > 100 µg/mL | antibiotic activity in blood after 2 hours ([15]; after 2 hours): No antibiotic activity was detected | elimination from the blood stream ([15]; after the peak): rapid elimination from the blood stream | concentration at 0.25 h ([15]; mouse, blood, 15 minutes): 15000 ng/mL | concentration at 0.5 h ([15]; mouse, blood, 30 minutes): 12000 ng/mL | concentration at 1 h ([15]; mouse, blood, 60 minutes): 2800 ng/mL | concentration at 2 h ([15]; mouse, blood, 120 minutes): > 1000 ng/mL | Tmax ([15]; mouse, blood, read-out: time of peak blood level (converted)): 15 min | solubility in methanol, ethanol, dimethylsulfoxide and dimethylformamide (solubility; methanol, ethanol, dimethylsulfoxide and dimethylformamide): slightly soluble | solubility in other common organic solvents (solubility; other common organic solvents): practically insoluble | solubility in water (solubility; water): soluble | effect of inoculum size on antibiotic activity ([16]; Mueller-Hinton agar, 10^0, 10^-2 or 10^-4 dilution): no significant effect | effect of medium on activity ([16]; NA and HIA compared with MHA or BHIA, pH 7): higher activity in NA and HIA than in MHA or BHIA | inhibitory activity both in vitro and in vivo ([16]; gram-positive and gram-negative bacteria, including aminoglycoside-resistant bacteria, summary statement): marked inhibitory activity | antibacterial activity ([16]; including bacteria which produce aminoglycoside-modifying enzymes): active | effect of pH 6 on activity ([16]; pH 6 compared with pH 7): much reduced activity | effect of pH 8 on activity ([16]; pH 8 compared with pH 7): approximately twice as active
